Our source for the IC50 values is patent US9580416B2, “Inhibitors of Bruton's tyrosine kinase” (PHARMACYCLICS LLC, priority 2014, dated 2017).

Holding throughout (type): biochemical
Assay [1] deals with EGFR (Homo sapiens, UniProt P00533). As to the kind of experiment: Inhibition of a panel of kinases, in vitro HotSpot kinase assay: EGFR. On the procedure: (§1) The degree of inhibition of a panel of kinases is determined using the in vitro HotSpot kinase assay (purified enzymes, ^33P-ATP, an appropriate substrate and 1 uM ATP).
Assay [2] addresses Lck (Homo sapiens, UniProt P06239). As to the kind of experiment: Lck kinase activity, TR-FRET assay. The settings on record: read-out: LCK (IC50). In outline:
(§2)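 Enzyme (Btk 0.5 nM; Lck 6 nM) reacted 1 h with inhibitor, ATP at Km and biotin-peptide substrate in pH 7.4 buffer, 10% DMSO. Phosphopeptide detected by Eu-p-Tyr100 antibody plus streptavidin-APC (665/615 nm). IC50 calculated from fitted Ki(app) via ATP/Km correction plus half total enzyme.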
(Time-resolved FRET reads energy transfer from a long-lived donor to a nearby acceptor.)

Assay [3] addresses Btk (Homo sapiens, UniProt Q06187). As to the kind of experiment: Btk kinase activity, TR-FRET assay. The settings on record: read-out: Btk (IC50). In outline:
as §2

The target in assay [4] is T1, JAK3 (Homo sapiens, UniProt P52333).
T1 sequence (P52333 1-1124): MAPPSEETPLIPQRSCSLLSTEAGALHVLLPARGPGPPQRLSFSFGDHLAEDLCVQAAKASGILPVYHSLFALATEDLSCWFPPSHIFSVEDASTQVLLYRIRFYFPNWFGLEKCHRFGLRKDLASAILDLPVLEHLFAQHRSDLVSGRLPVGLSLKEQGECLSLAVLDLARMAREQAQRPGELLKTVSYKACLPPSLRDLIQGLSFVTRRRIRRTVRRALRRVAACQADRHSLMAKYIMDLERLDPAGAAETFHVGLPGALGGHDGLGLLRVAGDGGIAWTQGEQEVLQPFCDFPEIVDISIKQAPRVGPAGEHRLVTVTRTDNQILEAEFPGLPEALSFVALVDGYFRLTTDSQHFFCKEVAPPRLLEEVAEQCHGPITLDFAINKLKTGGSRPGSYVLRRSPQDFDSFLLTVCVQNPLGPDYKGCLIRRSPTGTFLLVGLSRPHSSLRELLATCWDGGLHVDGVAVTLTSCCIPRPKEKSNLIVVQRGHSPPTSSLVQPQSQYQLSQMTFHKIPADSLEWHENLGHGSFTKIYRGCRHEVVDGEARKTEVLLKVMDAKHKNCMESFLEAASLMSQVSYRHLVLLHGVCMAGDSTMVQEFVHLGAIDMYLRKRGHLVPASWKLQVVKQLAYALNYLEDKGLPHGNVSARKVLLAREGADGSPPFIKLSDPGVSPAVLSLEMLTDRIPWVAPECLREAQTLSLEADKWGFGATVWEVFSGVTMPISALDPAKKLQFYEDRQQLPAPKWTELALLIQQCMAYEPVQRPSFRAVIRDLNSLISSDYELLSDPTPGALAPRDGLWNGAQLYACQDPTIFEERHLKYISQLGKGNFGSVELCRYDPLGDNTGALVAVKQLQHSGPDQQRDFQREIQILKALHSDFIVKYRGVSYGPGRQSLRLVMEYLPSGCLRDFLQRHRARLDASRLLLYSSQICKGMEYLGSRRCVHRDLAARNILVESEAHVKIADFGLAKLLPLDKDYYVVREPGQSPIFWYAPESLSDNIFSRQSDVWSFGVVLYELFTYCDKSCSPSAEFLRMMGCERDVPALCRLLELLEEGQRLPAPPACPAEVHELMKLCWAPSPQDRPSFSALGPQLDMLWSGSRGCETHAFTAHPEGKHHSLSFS
As to the kind of experiment: Inhibition of a panel of kinases, in vitro HotSpot kinase assay: JAK3. On the procedure:
as §1

SMILES strings stand for the structures.

Sequence of Lck (P06239 whole entry, species assumed): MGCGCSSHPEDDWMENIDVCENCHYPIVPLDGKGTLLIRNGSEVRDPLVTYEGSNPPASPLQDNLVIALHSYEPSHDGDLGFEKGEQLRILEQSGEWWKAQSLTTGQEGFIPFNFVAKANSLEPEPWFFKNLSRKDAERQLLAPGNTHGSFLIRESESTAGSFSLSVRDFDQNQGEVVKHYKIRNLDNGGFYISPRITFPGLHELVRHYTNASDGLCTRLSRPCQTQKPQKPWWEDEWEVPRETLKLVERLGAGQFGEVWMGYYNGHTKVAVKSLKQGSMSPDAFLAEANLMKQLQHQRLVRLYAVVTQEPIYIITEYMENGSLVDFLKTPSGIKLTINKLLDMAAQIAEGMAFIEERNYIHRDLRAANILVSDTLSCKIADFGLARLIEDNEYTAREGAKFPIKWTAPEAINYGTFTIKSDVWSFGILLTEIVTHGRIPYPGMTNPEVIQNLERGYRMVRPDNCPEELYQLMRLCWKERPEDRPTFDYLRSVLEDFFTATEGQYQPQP
Sequence of Btk (Q06187 whole entry): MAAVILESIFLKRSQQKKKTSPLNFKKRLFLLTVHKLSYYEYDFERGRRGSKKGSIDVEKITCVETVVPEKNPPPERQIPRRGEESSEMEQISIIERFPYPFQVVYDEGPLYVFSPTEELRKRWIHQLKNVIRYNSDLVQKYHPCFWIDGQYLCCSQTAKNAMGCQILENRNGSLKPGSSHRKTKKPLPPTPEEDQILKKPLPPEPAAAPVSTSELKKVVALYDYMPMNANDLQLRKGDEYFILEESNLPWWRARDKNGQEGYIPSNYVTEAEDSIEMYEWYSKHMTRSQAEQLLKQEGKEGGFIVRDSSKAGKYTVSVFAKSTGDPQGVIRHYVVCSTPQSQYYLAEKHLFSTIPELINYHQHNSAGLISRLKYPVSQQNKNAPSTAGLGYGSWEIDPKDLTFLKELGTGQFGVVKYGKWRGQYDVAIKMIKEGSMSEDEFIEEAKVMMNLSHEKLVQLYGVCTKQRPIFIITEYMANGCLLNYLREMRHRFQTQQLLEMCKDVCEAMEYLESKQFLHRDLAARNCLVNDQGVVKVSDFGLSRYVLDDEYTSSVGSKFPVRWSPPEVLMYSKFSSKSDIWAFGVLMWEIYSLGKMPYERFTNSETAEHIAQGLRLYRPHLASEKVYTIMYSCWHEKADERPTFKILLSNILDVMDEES
Sequence of EGFR (P00533 25-1210): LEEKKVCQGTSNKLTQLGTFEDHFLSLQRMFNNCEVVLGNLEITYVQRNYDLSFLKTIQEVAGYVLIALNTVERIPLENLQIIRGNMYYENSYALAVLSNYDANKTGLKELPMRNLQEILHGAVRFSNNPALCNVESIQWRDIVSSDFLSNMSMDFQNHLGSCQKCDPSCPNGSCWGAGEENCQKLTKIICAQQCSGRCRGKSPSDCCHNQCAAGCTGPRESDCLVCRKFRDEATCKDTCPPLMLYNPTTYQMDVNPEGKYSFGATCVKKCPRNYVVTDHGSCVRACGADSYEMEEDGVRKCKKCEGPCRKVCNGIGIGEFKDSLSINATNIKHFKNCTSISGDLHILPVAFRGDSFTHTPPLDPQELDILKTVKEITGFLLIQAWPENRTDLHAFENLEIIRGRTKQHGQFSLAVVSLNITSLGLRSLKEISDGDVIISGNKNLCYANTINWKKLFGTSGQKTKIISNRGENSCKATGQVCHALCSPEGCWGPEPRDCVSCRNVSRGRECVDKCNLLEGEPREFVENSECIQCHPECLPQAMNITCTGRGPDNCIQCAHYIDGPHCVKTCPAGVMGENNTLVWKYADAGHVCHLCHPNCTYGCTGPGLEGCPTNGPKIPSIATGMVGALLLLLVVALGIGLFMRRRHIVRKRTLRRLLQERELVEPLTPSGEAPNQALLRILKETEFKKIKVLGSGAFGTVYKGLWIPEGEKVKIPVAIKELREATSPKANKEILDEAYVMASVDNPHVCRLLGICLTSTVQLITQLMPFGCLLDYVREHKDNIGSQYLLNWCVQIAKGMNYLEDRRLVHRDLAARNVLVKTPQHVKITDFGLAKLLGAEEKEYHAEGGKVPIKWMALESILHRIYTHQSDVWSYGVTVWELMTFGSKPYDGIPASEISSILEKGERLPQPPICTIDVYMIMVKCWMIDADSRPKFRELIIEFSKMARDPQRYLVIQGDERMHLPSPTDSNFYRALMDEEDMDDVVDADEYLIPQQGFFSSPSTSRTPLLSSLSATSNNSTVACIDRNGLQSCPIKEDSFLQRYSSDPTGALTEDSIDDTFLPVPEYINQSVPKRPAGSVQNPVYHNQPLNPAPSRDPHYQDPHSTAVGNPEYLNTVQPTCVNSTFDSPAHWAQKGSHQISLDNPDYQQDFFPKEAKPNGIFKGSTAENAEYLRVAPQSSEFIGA

The term IC50 denotes the concentration needed to halve the response being measured. On to `Cc1ccnc(NC(=O)c2ccc(Oc3ccnc4[nH]nc(N[C@@H]5CCCN(C(=O)C6(C)CCN(C)CC6)C5)c34)cc2)c1` [compound 283, (R)-4-(3-(1-(1,4-dimethylpiperidine-4-carbonyl)piperidin-3-ylamino)-1H-pyrazolo[3,4-b]pyridin-4-yloxy)-N-(4-methylpyridin-2-yl)benzamide], for which the half-maximal inhibitory concentration (IC50) was > 10000 nM in assay [1], 100 to 1000 nM in assay [2], < 100 nM in assay [3] and > 10000 nM in assay [4].
Regarding `Cc1ccnc(NC(=O)c2ccc(Oc3ccnc4[nH]nc(NC5CCN(C(=O)C6(C)CCN(C)CC6)CC5)c34)cc2)c1` [compound 284, 4-(3-(1-(1,4-dimethylpiperidine-4-carbonyl)piperidin-4-ylamino)-1H-pyrazolo[3,4-b]pyridin-4-yloxy)-N-(4-methylpyridin-2-yl)benzamide], the IC50 in assay [1] was > 10000 nM; in assay [2], 100 to 1000 nM; in assay [3], 100 to 1000 nM; in assay [4], > 10000 nM.
